Where two headings read alike, the source gives them in different places.
Target: T1, Human Recombinant Matriptase 2 (Homo sapiens, UniProt Q8IU80)
T1 construct: purchased Enzo Life Sciences (an in-house preparation was also used) ALX-201-752-1
T1 sequence (Q8IU80 1-811): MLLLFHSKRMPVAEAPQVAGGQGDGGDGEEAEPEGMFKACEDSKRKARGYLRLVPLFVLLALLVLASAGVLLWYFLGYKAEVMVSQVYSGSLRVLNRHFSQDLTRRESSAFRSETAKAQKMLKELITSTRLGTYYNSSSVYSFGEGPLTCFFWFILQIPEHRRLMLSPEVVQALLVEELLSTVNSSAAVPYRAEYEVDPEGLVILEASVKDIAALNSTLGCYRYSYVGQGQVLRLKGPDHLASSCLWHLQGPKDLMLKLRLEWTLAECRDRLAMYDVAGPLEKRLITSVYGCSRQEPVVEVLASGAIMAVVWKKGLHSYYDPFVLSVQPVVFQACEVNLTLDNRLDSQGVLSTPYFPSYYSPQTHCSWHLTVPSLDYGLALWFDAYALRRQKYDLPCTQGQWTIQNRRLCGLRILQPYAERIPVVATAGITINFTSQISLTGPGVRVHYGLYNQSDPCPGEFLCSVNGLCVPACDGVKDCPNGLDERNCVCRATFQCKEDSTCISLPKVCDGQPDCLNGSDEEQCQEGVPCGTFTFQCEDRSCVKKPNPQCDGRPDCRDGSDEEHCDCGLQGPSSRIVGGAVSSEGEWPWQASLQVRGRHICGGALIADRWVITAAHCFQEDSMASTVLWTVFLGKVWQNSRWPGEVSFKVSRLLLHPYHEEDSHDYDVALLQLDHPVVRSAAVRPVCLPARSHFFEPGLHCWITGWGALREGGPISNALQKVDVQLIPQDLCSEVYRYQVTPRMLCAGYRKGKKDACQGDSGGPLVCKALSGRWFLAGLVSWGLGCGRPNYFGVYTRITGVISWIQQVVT
Test: Matriptase 2 fluorescence based inhibition assay, Method B (50 mM TRIS pH 7.5, 150 mM NaCl, 0.01% gelatin)
Format: biochemical
Settings: read-out: Mar-2 % inhibition at 1 uM
Procedure, shortened: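 Commercial (7 nM) or in-house (15 nM) enzyme preincubated 30 min with compound at 25° C, then 100 μM Boc-Gln-Ala-Arg-AMC added; fluorescence (Ex 360/Em 480 nm) read at 60 min. 1% DMSO final. IC50 from variable-slope sigmoidal fit of % inhibition.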

inhibition at 1 µM (1 uM compound, Assay Used = B) | SMILES | inhibition at 1 µM
75 to 100% | CS(=O)(=O)Nc1cc(Cn2c(C(=O)O)cc3ccc(C(=N)N)cc32)c2ccccc2c1 [Compound I-546] | –
75 to 100% | N=C(N)c1ccc2cc(C(=O)NCCS(N)(=O)=O)n(Cc3cc(Oc4ncccn4)cc4ccccc34)c2c1 [Compound I-547] | –
25 to 50% | N=C(N)c1ccc2cc(C(=O)O)n(Cc3cc(S(N)(=O)=O)cc4ccccc34)c2c1 [Compound I-548] | –
25 to 50% | CCOC(=O)NC(=N)c1ccc2cc(C(=O)NC3CCN(C)CC3)n(Cc3cc(Oc4ncccn4)cc4ccccc34)c2c1 [Compound I-549] | –
0 to 25% | COC(=O)NCCOC(=O)c1cc2ccc(C(=N)NC(=O)OCC(C)C)cc2n1Cc1cc(Oc2ncccn2)cc2ccccc12 [Compound I-550] | –
0 to 25% | N=C(NC(=O)OCC(Cl)(Cl)Cl)c1ccc2cc(C(=O)O)n(Cc3cc(Oc4ncccn4)cc4ccccc34)c2c1 [Compound I-552] | –
25 to 50% | COC(=O)NCCOC(=O)c1cc2ccc(C(=N)N)cc2n1Cc1cc(Oc2ccccc2)cc2ccccc12 [Compound I-555] | –
25 to 50% | COC(=O)NCCOC(=O)c1cc2ccc(C(=N)N)cc2n1Cc1cc(S(=O)(=O)c2ccccc2)cc2ccccc12 [Compound I-556] | –
0 to 25% | CC(C)COC(=O)NC(=N)c1ccc2cc(C(=O)NC3CCN(C)CC3)n(Cc3cc(Oc4ncccn4)cc4ccccc34)c2c1 [Compound I-557] | –
0 to 25% | CCOC(=O)c1cc2ccc(/C(N)=N/C#N)cc2n1Cc1cc(Oc2ncccn2)cc2ccccc12 [Compound I-558, ethyl (Z)-6-(N′-cyanocarbamimidoyl)-1-((3-(pyrimidin-2-yloxy)naphthalen-1-yl)methyl)-1H-indole-2-carboxylate] | –
25 to 50% | CCOC(=O)NC(=N)c1ccc2cc(C(=O)OCC)n(Cc3cc(Oc4ncccn4)cc4ccccc34)c2c1 [Compound I-559] | –
25 to 50% | COC(=O)NC(=N)c1ccc2cc(C(=O)O)n(Cc3cc(Oc4ncccn4)cc4ccccc34)c2c1 [Compound I-561] | –
50 to 75% | CN1CCC(COC(=O)c2cc3ccc(C(=N)N)cc3n2Cc2cc(Oc3ncccn3)cc3ccccc23)CC1 [Compound I-562] | –
50 to 75% | N=C(N)c1ccc2cc(C(=O)O)n(Cc3cc(OCc4ncccn4)cc4ccccc34)c2c1 [Compound I-563] | –
75 to 100% | COC(=O)NCCNC(=O)c1cc2ccc(C(=N)N)cc2n1Cc1cc(Oc2ncccn2)cc2ccccc12 [Compound I-564] | –
75 to 100% | N=C(N)c1ccc2cc(C(=O)OCCO)n(Cc3cc(Oc4ncccn4)cc4ccccc34)c2c1 [Compound I-565] | –
25 to 50% | Cc1ccnc(Oc2cc(Cn3c(C(=O)O)cc4ccc(C(=N)N)cc43)c3ccccc3c2)n1 [Compound I-566] | –
75 to 100% | N=C(N)c1ccc2cc(C(=O)O)n(Cc3cc(NS(=O)(=O)c4ccccc4)cc4ccccc34)c2c1 [Compound I-567, 6-carbamimidoyl-1-((3-(phenylsulfonamido)naphthalen-1-yl)methyl)-1H-indole-2-carboxylic Acid] | –
75 to 100% | N=C(N)c1ccc2cc(C(=O)OCCNC(N)=O)n(Cc3cc(Oc4ncccn4)cc4ccccc34)c2c1 [Compound I-568] | –
75 to 100% | N=C(N)c1cc(F)c2cc(C(=O)O)n(Cc3cc(Oc4ncccn4)cc4ccccc34)c2c1 [Compound I-569, 6-carbamimidoyl-4-fluoro-1-((3-(pyrimidin-2-yloxy)naphthalen-1-yl)methyl)-1H-indole-2-carboxylic Acid] | –
25 to 50% | Cc1cc(C)nc(Oc2cc(Cn3c(C(=O)O)cc4ccc(C(=N)N)cc43)c3ccccc3c2)n1 [Compound I-570] | –
50 to 75% | N=C(N)c1ccc2cc(C(=O)O)n(Cc3cc(Oc4ncc(F)cn4)cc4ccccc34)c2c1 [Compound I-571] | –
50 to 75% | N=C(N)c1ccc2cc(C(=O)Nc3nnn[nH]3)n(Cc3cc(Oc4ncccn4)cc4ccccc34)c2c1 [Compound I-572] | –

More lines, now with the values behind:

SMILES | inhibition at 1 µM (1 uM compound, Assay Used = B) | inhibition at 1 µM
N=C(N)c1ccc2cc(-c3nnc([C@H]4CC[C@H](N)CC4)o3)n(Cc3cccc4ccccc34)c2c1 [Compound I-525, 2-(5-((1r,4r)-4-aminocyclohexyl)-1,3,4-oxadiazol-2-yl)-1-(naphthalen-1-ylmethyl)-1H-indole-6-carboximidamide] | 75 to 100% | –
N=C(N)c1ccc2cc(-c3nnc([C@H]4CC[C@H](N)CC4)s3)n(Cc3cccc4ccccc34)c2c1 [Compound I-526, 2-(5-((1r,4r)-4-aminocyclohexyl)-1,3,4-thiadiazol-2-yl)-1-(naphthalen-1-ylmethyl)-1H-indole-6-carboximidamide] | 75 to 100% | –
NC(=O)c1ccc2cc(-c3nnc([C@H]4CC[C@H](N)CC4)s3)n(Cc3cccc4ccccc34)c2c1 [Compound I-527, 2-(5-((1r,4r)-4-aminocyclohexyl)-1,3,4-thiadiazol-2-yl)-1-(naphthalen-1-ylmethyl)-1H-indole-6-carboxamide] | 0 to 25% | –
N=C(N)c1ccc2cc(-c3nc4c(s3)CCC(N)C4)n(Cc3cccc4ccccc34)c2c1 (stereo not drawn) [Compound I-528, 2-(5-amino-4,5,6,7-tetrahydrobenzo[d]thiazol-2-yl)-1-(naphthalen-1-ylmethyl)-1H-indole-6-carboximidamide] | 25 to 50% | –
N=C(N)c1ccc2cc(NC(=O)[C@H]3CC[C@H](N)CC3)n(Cc3cccc4ccccc34)c2c1 [Compound I-529, (1r,4r)-4-amino-N-(6-carbamimidoyl-1-(naphthalen-1-ylmethyl)-1H-indol-2-yl) cyclohexane-1-carboxamide] | 50 to 75% | –
CC(C)(C)OC(=O)N[C@H]1CC[C@H](NC(=O)c2cc3ccc(CN)cc3n2Cc2cccc3ccccc23)CC1 [Compound I-530, tert-butyl ((1r,4r)-4-(6-(aminomethyl)-1-(naphthalen-1-ylmethyl)-1H-indole-2-carboxamido)cyclohexyl) carbamate] | 0 to 25% | –
NCc1ccc2cc(C(=O)N[C@H]3CC[C@H](N)CC3)n(Cc3cccc4ccccc34)c2c1 [Compound I-531, N-((1r,4r)-4-aminocyclohexyl)-6-(aminomethyl)-1-(naphthalen-1-ylmethyl)-1H-indole-2-carboxamide] | 50 to 75% | –
NCc1ccc2cc(C(=O)N[C@H]3CC[C@H](O)CC3)n(Cc3cccc4ccccc34)c2c1 [Compound I-532] | 25 to 50% | –
NCc1ccc2cc(C(=O)NC3CCNCC3)n(Cc3cccc4ccccc34)c2c1 [Compound I-533] | 25 to 50% | –
NCc1ccc2cc(C(=O)NCC3CCNCC3)n(Cc3cccc4ccccc34)c2c1 [Compound I-534] | 25 to 50% | –
CN1CCC(NC(=O)c2cc3ccc(CN)cc3n2Cc2cccc3ccccc23)CC1 [Compound I-535] | 25 to 50% | –
NCc1ccc2cc(C(=O)NCC3CCNCC3)n(-c3ccc4ccccc4c3)c2c1 [Compound I-537] | 0 to 25% | –
NCc1ccc2cc(C(=O)O)n(Cc3cccc4ccccc34)c2c1 [Compound I-538, 6-(aminomethyl)-1-(naphthalen-1-ylmethyl)-1H-indole-2-carboxylic Acid] | 25 to 50% | –
CC(C)(C)OC(=O)NCc1ccc2cc(C(=O)O)n(Cc3cccc4ccccc34)c2c1 [Compound I-539, 6-(((tert-butoxycarbonyl)amino)methyl)-1-(naphthalen-1-ylmethyl)-1H-indole-2-carboxylic Acid] | 0 to 25% | –
NCc1ccc2cc(C(=O)NC3CCCC(N)C3)n(Cc3cccc4ccccc34)c2c1 (stereo not drawn) [Compound I-540] | 25 to 50% | –
NCCCCNC(=O)c1cc2ccc(CN)cc2n1Cc1cccc2ccccc12 [Compound I-541] | 0 to 25% | –
N=C(N)c1ccc2nc(C(=O)N[C@H]3CC[C@H](N)CC3)n(Cc3cccc4ccccc34)c2c1 [Compound I-542, N-((1r,4r)-4-aminocyclohexyl)-6-carbamimidoyl-1-(naphthalen-1-ylmethyl)-1H-benzo[d]imidazole-2-carboxamide] | 75 to 100% | –
N=C(N)c1ccc2cc(C(=O)O)n(Cc3cc(Oc4ncccn4)cc4ccccc34)c2n1 [Compound I-544] | 25 to 50% | –
CN1CCC(NC(=O)c2cc3ccc(C(=N)NC(=O)Oc4ccc(F)cc4)cc3n2Cc2cc(Oc3ncccn3)cc3ccccc23)CC1 [Compound I-545] | – | 25 to 50%
N=C(NC(=O)Oc1ccccc1)c1ccc2cc(C(=O)O)n(Cc3cc(Oc4ncccn4)cc4ccccc34)c2c1 [Compound I-551] | – | 0 to 25%
CN1CCC(NC(=O)c2cc3ccc(C(=N)NC(=O)Oc4ccccc4)cc3n2Cc2cc(Oc3ncccn3)cc3ccccc23)CC1 [Compound I-553] | – | 0 to 25%
COC(=O)NCCOC(=O)c1cc2ccc(C(=N)NC(=O)Oc3ccccc3)cc2n1Cc1cc(Oc2ncccn2)cc2ccccc12 [Compound I-554] | – | 0 to 25%
